# Source: US20230157952A1, “METHOD FOR IMPROVING THE STABILITY OF A PHARMACEUTICAL COMPOSITION COMPRISING A HIGH PENETRATION DRUG, AND THE PHARMACEUTICAL COMPOSITION OBTAINED THEREFROM” (Techfields Inc., priority 2020, published 2023)
# Assay: Effect of solvent on the stability of the solution (purity at various pH values and temperature)
# Assay type: physicochemical
# Conditions: 7% solution
smiles,measurement,setting,value
CCN(CC)CCOC(=O)c1ccccc1OC(C)=O.Cl,Purity (%) at day 14 (60° C.),"solvent 25% ethanol, pH 8.0, day 14, 60° C.",0%
same,Purity(%) at day 0,"solvent 50% ethanol, pH 1.0, day 0",99.2 ± 0.3%
same,Purity(%) at day 14 (5° C.),"solvent 50% ethanol, pH 1.0, day 14, 5° C.",92.4 ± 0.3%
same,Purity(%) at day 14 (25° C.),"solvent 50% ethanol, pH 1.0, day 14, 25° C.",63.8 ± 0.4%
same,Purity(%) at day 14 (40° C.),"solvent 50% ethanol, pH 1.0, day 14, 40° C.",0%
same,Purity (%) at day 14 (60° C.),"solvent 50% ethanol, pH 1.0, day 14, 60° C.",0%
same,Purity(%) at day 0,"solvent 50% ethanol, pH 2.0, day 0",99.5 ± 0.2%
same,Purity(%) at day 14 (5° C.),"solvent 50% ethanol, pH 2.0, day 14, 5° C.",96.9 ± 0.3%
same,Purity(%) at day 14 (25° C.),"solvent 50% ethanol, pH 2.0, day 14, 25° C.",84.7 ± 0.3%
same,Purity(%) at day 14 (40° C.),"solvent 50% ethanol, pH 2.0, day 14, 40° C.",0%
same,Purity (%) at day 14 (60° C.),"solvent 50% ethanol, pH 2.0, day 14, 60° C.",0%
same,Purity(%) at day 0,"solvent 50% ethanol, pH 3.0, day 0",99.6 ± 0.3%
same,Purity(%) at day 14 (25° C.),"solvent 50% ethanol, pH 3.0, day 14, 25° C.",89.5 ± 0.3%
same,Purity(%) at day 14 (40° C.),"solvent 50% ethanol, pH 3.0, day 14, 40° C.",3.2 ± 0.3%
same,Purity (%) at day 14 (60° C.),"solvent 50% ethanol, pH 3.0, day 14, 60° C.",0%
same,Purity(%) at day 0,"solvent 50% ethanol, pH 3.7, day 0",99.7 ± 0.2%
same,Purity(%) at day 14 (5° C.),"solvent 50% ethanol, pH 3.7, day 14, 5° C.",99.1 ± 0.3%
same,Purity(%) at day 14 (25° C.),"solvent 50% ethanol, pH 3.7, day 14, 25° C.",96.6 ± 0.2%
same,Purity(%) at day 14 (40° C.),"solvent 50% ethanol, pH 3.7, day 14, 40° C.",16.9 ± 0.3%
same,Purity (%) at day 14 (60° C.),"solvent 50% ethanol, pH 3.7, day 14, 60° C.",0%
same,Purity(%) at day 0,"solvent 50% ethanol, pH 4.0, day 0",99.8 ± 0.2%
same,Purity(%) at day 14 (5° C.),"solvent 50% ethanol, pH 4.0, day 14, 5° C.",99.2 ± 0.3%
same,Purity(%) at day 14 (25° C.),"solvent 50% ethanol, pH 4.0, day 14, 25° C.",97.2 ± 0.3%
same,Purity(%) at day 14 (40° C.),"solvent 50% ethanol, pH 4.0, day 14, 40° C.",16.8 ± 0.4%
same,Purity (%) at day 14 (60° C.),"solvent 50% ethanol, pH 4.0, day 14, 60° C.",0%
same,Purity(%) at day 0,"solvent 50% ethanol, pH 4.3, day 0",99.7 ± 0.2%
same,Purity(%) at day 14 (5° C.),"solvent 50% ethanol, pH 4.3, day 14, 5° C.",99.1 ± 0.2%
same,Purity(%) at day 14 (25° C.),"solvent 50% ethanol, pH 4.3, day 14, 25° C.",97.2 ± 0.2%
same,Purity(%) at day 14 (40° C.),"solvent 50% ethanol, pH 4.3, day 14, 40° C.",14.9 ± 0.3%
same,Purity (%) at day 14 (60° C.),"solvent 50% ethanol, pH 4.3, day 14, 60° C.",0%
same,Purity(%) at day 0,"solvent 50% ethanol, pH 4.6, day 0",99.7 ± 0.3%
same,Purity(%) at day 14 (25° C.),"solvent 50% ethanol, pH 4.6, day 14, 25° C.",96.9 ± 0.3%
same,Purity(%) at day 14 (40° C.),"solvent 50% ethanol, pH 4.6, day 14, 40° C.",4.9 ± 0.3%
same,Purity (%) at day 14 (60° C.),"solvent 50% ethanol, pH 4.6, day 14, 60° C.",0%
same,Purity(%) at day 0,"solvent 50% ethanol, pH 5.0, day 0",99.6 ± 0.2%
same,Purity(%) at day 14 (25° C.),"solvent 50% ethanol, pH 5.0, day 14, 25° C.",93.1 ± 0.3%
same,Purity(%) at day 14 (40° C.),"solvent 50% ethanol, pH 5.0, day 14, 40° C.",2.3 ± 0.2%
same,Purity (%) at day 14 (60° C.),"solvent 50% ethanol, pH 5.0, day 14, 60° C.",0%
same,Purity(%) at day 0,"solvent 50% ethanol, pH 6.0, day 0",99.5 ± 0.3%
same,Purity(%) at day 14 (5° C.),"solvent 50% ethanol, pH 6.0, day 14, 5° C.",92.9 ± 0.4%
same,Purity(%) at day 14 (25° C.),"solvent 50% ethanol, pH 6.0, day 14, 25° C.",85.5 ± 0.3%
same,Purity(%) at day 14 (40° C.),"solvent 50% ethanol, pH 6.0, day 14, 40° C.",0%
same,Purity (%) at day 14 (60° C.),"solvent 50% ethanol, pH 6.0, day 14, 60° C.",0%
same,Purity(%) at day 0,"solvent 50% ethanol, pH 7.0, day 0",99.4 ± 0.3%
same,Purity(%) at day 14 (5° C.),"solvent 50% ethanol, pH 7.0, day 14, 5° C.",88.2 ± 0.3%
same,Purity(%) at day 14 (25° C.),"solvent 50% ethanol, pH 7.0, day 14, 25° C.",61.9 ± 0.4%
same,Purity(%) at day 14 (40° C.),"solvent 50% ethanol, pH 7.0, day 14, 40° C.",0%
same,Purity (%) at day 14 (60° C.),"solvent 50% ethanol, pH 7.0, day 14, 60° C.",0%
same,Purity(%) at day 0,"solvent 50% ethanol, pH 8.0, day 0",99.2 ± 0.3%
same,Purity(%) at day 14 (5° C.),"solvent 50% ethanol, pH 8.0, day 14, 5° C.",60.3 ± 0.4%
same,Purity(%) at day 14 (25° C.),"solvent 50% ethanol, pH 8.0, day 14, 25° C.",23.9 ± 0.4%
same,Purity(%) at day 14 (40° C.),"solvent 50% ethanol, pH 8.0, day 14, 40° C.",0%
same,Purity (%) at day 14 (60° C.),"solvent 50% ethanol, pH 8.0, day 14, 60° C.",0%
same,Purity(%) at day 0,"solvent water, pH 1.0, day 0",99.1 ± 0.3%
same,Purity(%) at day 14 (5° C.),"solvent water, pH 1.0, day 14, 5° C.",90.8 ± 0.3%
same,Purity(%) at day 14 (25° C.),"solvent water, pH 1.0, day 14, 25° C.",62.2 ± 0.4%
same,Purity(%) at day 14 (40° C.),"solvent water, pH 1.0, day 14, 40° C.",0%
same,Purity (%) at day 14 (60° C.),"solvent water, pH 1.0, day 14, 60° C.",0%
same,Purity(%) at day 0,"solvent water, pH 2.0, day 0",99.3 ± 0.2%
same,Purity(%) at day 14 (5° C.),"solvent water, pH 2.0, day 14, 5° C.",96.3 ± 0.2%
same,Purity(%) at day 14 (25° C.),"solvent water, pH 2.0, day 14, 25° C.",83.3 ± 0.3%
same,Purity(%) at day 14 (40° C.),"solvent water, pH 2.0, day 14, 40° C.",0%
same,Purity (%) at day 14 (60° C.),"solvent water, pH 2.0, day 14, 60° C.",0%
same,Purity(%) at day 0,"solvent water, pH 3.0, day 0",99.5 ± 0.2%
same,Purity(%) at day 14 (25° C.),"solvent water, pH 3.0, day 14, 25° C.",88.5 ± 0.2%
same,Purity(%) at day 14 (40° C.),"solvent water, pH 3.0, day 14, 40° C.",2.5 ± 0.2%
same,Purity (%) at day 14 (60° C.),"solvent water, pH 3.0, day 14, 60° C.",0%
same,Purity(%) at day 0,"solvent water, pH 3.7, day 0",99.5 ± 0.1%
same,Purity(%) at day 14 (25° C.),"solvent water, pH 3.7, day 14, 25° C.",96.1 ± 0.1%
same,Purity(%) at day 14 (40° C.),"solvent water, pH 3.7, day 14, 40° C.",14.5 ± 0.3%
same,Purity (%) at day 14 (60° C.),"solvent water, pH 3.7, day 14, 60° C.",0%
same,Purity(%) at day 0,"solvent water, pH 4.0, day 0",99.6 ± 0.1%
same,Purity(%) at day 14 (25° C.),"solvent water, pH 4.0, day 14, 25° C.",96.6 ± 0.2%
same,Purity(%) at day 14 (40° C.),"solvent water, pH 4.0, day 14, 40° C.",14.5 ± 0.3%
same,Purity (%) at day 14 (60° C.),"solvent water, pH 4.0, day 14, 60° C.",0%
same,Purity(%) at day 0,"solvent water, pH 4.3, day 0",99.7 ± 0.1%
same,Purity(%) at day 14 (25° C.),"solvent water, pH 4.3, day 14, 25° C.",96.6 ± 0.1%
same,Purity(%) at day 14 (40° C.),"solvent water, pH 4.3, day 14, 40° C.",12.9 ± 0.2%
same,Purity (%) at day 14 (60° C.),"solvent water, pH 4.3, day 14, 60° C.",0%
same,Purity(%) at day 0,"solvent water, pH 4.6, day 0",99.5 ± 0.2%
same,Purity(%) at day 14 (25° C.),"solvent water, pH 4.6, day 14, 25° C.",96.5 ± 0.2%
same,Purity(%) at day 14 (40° C.),"solvent water, pH 4.6, day 14, 40° C.",3.6 ± 0.2%
same,Purity (%) at day 14 (60° C.),"solvent water, pH 4.6, day 14, 60° C.",0%
same,Purity(%) at day 0,"solvent water, pH 5.0, day 0",99.5 ± 0.1%
same,Purity(%) at day 14 (5° C.),"solvent water, pH 5.0, day 14, 5° C.",97.3 ± 0.1%
same,Purity(%) at day 14 (25° C.),"solvent water, pH 5.0, day 14, 25° C.",92.5 ± 0.2%
same,Purity(%) at day 14 (40° C.),"solvent water, pH 5.0, day 14, 40° C.",1.0%
same,Purity (%) at day 14 (60° C.),"solvent water, pH 5.0, day 14, 60° C.",0%
same,Purity(%) at day 0,"solvent water, pH 6.0, day 0",99.4 ± 0.3%
same,Purity(%) at day 14 (5° C.),"solvent water, pH 6.0, day 14, 5° C.",92.1 ± 0.2%
same,Purity(%) at day 14 (25° C.),"solvent water, pH 6.0, day 14, 25° C.",84.7 ± 0.3%
same,Purity(%) at day 14 (40° C.),"solvent water, pH 6.0, day 14, 40° C.",0%
same,Purity (%) at day 14 (60° C.),"solvent water, pH 6.0, day 14, 60° C.",0%
same,Purity(%) at day 0,"solvent water, pH 7.0, day 0",99.2 ± 0.3%
same,Purity(%) at day 14 (5° C.),"solvent water, pH 7.0, day 14, 5° C.",87.9 ± 0.3%
same,Purity(%) at day 14 (25° C.),"solvent water, pH 7.0, day 14, 25° C.",59.8 ± 0.3%
same,Purity(%) at day 14 (40° C.),"solvent water, pH 7.0, day 14, 40° C.",0%
same,Purity (%) at day 14 (60° C.),"solvent water, pH 7.0, day 14, 60° C.",0%
same,Purity(%) at day 14 (5° C.),"solvent water, pH 8.0, day 14, 5° C.",57.9 ± 0.3%
same,Purity(%) at day 14 (25° C.),"solvent water, pH 8.0, day 14, 25° C.",21.7 ± 0.4%
same,Purity(%) at day 14 (40° C.),"solvent water, pH 8.0, day 14, 40° C.",0%
same,Purity (%) at day 14 (60° C.),"solvent water, pH 8.0, day 14, 60° C.",0%
